From publication PMC12278908, “Genome integrity sensing by the broad-spectrum Hachiman antiphage defense complex” (Cell, 2024)

Target: T1, HamAB (Escherichia coli, UniProt A0A426EXV0)
T1 construct: gene DU321_04165; native locus coexpressed in E. coli BL21-AI; only HamA tagged 10xHis-MBP-TEV, TEV-treated; 1:1 heterodimer; with Hachiman antiphage defense system nuclease HamA (DUF1837 domain-containing protein)
T1 sequence (A0A426EXV0 1-1174): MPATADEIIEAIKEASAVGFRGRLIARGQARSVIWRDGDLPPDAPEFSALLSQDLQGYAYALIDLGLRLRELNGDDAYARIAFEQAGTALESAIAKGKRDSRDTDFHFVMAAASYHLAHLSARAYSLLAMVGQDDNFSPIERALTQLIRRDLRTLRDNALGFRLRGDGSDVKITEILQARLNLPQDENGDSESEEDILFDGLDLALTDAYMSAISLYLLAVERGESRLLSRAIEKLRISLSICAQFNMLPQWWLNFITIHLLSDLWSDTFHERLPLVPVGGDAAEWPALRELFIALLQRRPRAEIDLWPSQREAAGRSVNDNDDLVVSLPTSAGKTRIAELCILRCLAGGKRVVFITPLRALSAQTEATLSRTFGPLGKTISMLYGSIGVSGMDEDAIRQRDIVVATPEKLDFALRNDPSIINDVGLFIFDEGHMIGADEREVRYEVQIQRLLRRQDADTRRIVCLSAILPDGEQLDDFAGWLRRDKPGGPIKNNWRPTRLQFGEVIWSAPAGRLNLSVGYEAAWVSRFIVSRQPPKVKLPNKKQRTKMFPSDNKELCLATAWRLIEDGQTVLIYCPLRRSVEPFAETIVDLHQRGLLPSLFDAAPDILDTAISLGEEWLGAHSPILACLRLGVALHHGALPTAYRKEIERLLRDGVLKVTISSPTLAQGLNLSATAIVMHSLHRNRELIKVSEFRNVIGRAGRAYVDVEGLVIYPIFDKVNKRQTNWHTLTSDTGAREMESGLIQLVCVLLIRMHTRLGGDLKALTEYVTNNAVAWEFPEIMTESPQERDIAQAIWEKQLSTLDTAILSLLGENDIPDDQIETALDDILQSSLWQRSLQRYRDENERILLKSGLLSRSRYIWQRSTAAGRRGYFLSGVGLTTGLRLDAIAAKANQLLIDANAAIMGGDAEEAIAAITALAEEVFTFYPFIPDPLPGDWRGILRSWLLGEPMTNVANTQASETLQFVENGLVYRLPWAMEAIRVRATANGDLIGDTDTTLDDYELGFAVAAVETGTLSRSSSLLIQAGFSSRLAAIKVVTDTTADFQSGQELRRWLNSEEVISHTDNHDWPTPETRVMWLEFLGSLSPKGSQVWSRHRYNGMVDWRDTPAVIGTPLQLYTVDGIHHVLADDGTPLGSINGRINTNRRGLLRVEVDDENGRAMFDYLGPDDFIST
T1 sequence (Q6XGE5 1-259 partner): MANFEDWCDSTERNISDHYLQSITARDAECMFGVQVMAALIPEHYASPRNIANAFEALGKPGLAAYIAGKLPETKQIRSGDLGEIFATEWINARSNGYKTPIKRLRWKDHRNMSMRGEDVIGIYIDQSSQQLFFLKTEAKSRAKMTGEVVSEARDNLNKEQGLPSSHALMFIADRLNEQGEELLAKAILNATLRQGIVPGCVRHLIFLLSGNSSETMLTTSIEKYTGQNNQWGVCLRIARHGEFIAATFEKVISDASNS
Assay: malachite green phosphate release ATPase assay
Assay type: biochemical
Conditions: with or without supercoiled plasmid DNA; 1 mM ATP, 2 mM MgSO4, pH 8.8, 37 °C

Nc1ncnc2c1ncn2[C@@H]1O[C@H](COP(=O)(O)OP(=O)(O)OP(=O)(O)O)[C@@H](O)[C@H]1O [ATP]
malachite green phosphate release ATPase assay: ATPase assays with HamB, HamAB, and HamA*B in the presence of plasmid DNA
